Results taken from PubChem BioAssay (NCI).
Several values for one entry are separate records, joined by “and”; a condition that tells them apart may be missing. Equal values may be shown once.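 Tested at 5 concentrations; 48 h exposure; 96-well plates; endpoints linearly interpolated, else capped at highest concentration. Abbreviation: GI50, concentration required for 50% inhibition of growth. TGI: total growth inhibition.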 Where a SMILES comes first, the peptide text is derived from it. The star is where a group is joined. Boc = CC(C)(C)OC(=O)*; nBu = CCCC*

Assays:
Assay in all cases: NCI tumour cell line growth inhibition, 48 h
COLO 205 colon = test system: COLO 205 colon
M14 melanoma = test system: M14 melanoma
NCI-H522 lung = test system: NCI-H522 lung
PC-3 prostate = test system: PC-3 prostate
KM12 colon = test system: KM12 colon
U251 CNS = test system: U251 CNS
CCRF-CEM leukemia = test system: CCRF-CEM leukemia
T-47D breast = test system: T-47D breast
DU-145 prostate = test system: DU-145 prostate
HL-60(TB) leukemia = test system: HL-60(TB) leukemia

Structure (SMILES)	TGI (COLO 205 colon)	TGI (M14 melanoma)	TGI (NCI-H522 lung)	TGI (PC-3 prostate)	TGI (KM12 colon)	TGI (U251 CNS)	TGI (CCRF-CEM leukemia)	TGI (T-47D breast)	TGI (DU-145 prostate)	TGI (HL-60(TB) leukemia)	GI50 (M14 melanoma)	GI50 (NCI-H522 lung)	GI50 (HL-60(TB) leukemia)	GI50 (CCRF-CEM leukemia)	GI50 (DU-145 prostate)	GI50 (COLO 205 colon)	GI50 (PC-3 prostate)	GI50 (KM12 colon)	GI50 (U251 CNS)	GI50 (T-47D breast)
COc1cc(C2S/C(=C/c3ccccc3)C(=O)N2c2cccc(NC(C)=O)c2)cc(OC)c1OC (configuration not stated)	86.6 µM	> 100 µM	47.1 µM	48.9 µM	82 µM	50.8 µM	> 100 µM	68.6 µM	–	–	–	–	–	–	–	–	–	–	–	–
C/C(C=O)=C/[C@@]1(C)O[C@@H](C)[C@@](C)(O)[C@@H]1O	> 100 µM	> 100 µM	35.5 µM	> 100 µM	> 100 µM	> 100 µM	> 100 µM	> 100 µM	> 100 µM	> 100 µM	–	–	–	–	–	–	–	–	–	–
C#C[C@]1(O)CC[C@H]2[C@@H]3CCc4cc(O)ccc4[C@H]3CC[C@@]21C	92.7 µM	–	43.5 µM	–	> 100 µM	–	> 100 µM	–	–	94 µM	–	–	–	–	–	–	–	–	–	–
COC(=O)/C=C\C(C#N)(C#N)N=Cc1ccc(OC)cc1	3.47 µM	8.77 µM	2.26 µM	19.6 µM	32.6 µM	35.2 µM	2.53 µM	4.53 µM	17 µM	5.62 µM	–	–	–	–	–	–	–	–	–	–
Cc1c(-c2ccccc2)[nH]c2cn[nH]c(=O)c12	> 100 µM	> 100 µM	> 100 µM	> 100 µM	> 100 µM	> 100 µM	> 100 µM	–	> 100 µM	> 100 µM	–	–	–	–	–	–	–	–	–	–
COc1cccc(C23CCN(C)C(CC(O)C2)C3)c1OC (configuration not stated)	> 100 µM	> 100 µM	> 100 µM	> 100 µM	> 100 µM	> 100 µM	> 100 µM	> 100 µM	> 100 µM	> 100 µM	–	–	–	–	–	–	–	–	–	–
O=C(O)c1cc2ccccc2c(N=Nc2ccc(S(=O)(=O)Nc3ncccn3)cc2)c1O	> 100 µM	> 100 µM	> 100 µM	> 100 µM	> 100 µM	> 100 µM	> 100 µM	–	–	> 100 µM	–	–	–	–	–	–	–	–	–	–
CN(CCc1ccccn1)c1ccc2c(c1)C(=O)c1ccccc1-2	> 100 µM	> 100 µM	> 100 µM	> 100 µM	> 100 µM	> 100 µM	> 100 µM	> 100 µM	> 100 µM	–	–	–	–	–	–	–	–	–	–	–
CCc1n[nH]c(=O)n1/N=C(\C)c1ccccc1	> 100 µM	> 100 µM	> 100 µM	> 100 µM	> 100 µM	> 100 µM	> 100 µM	> 100 µM	> 100 µM	> 100 µM	–	–	–	–	–	–	–	–	–	–
O=C(Cc1nc2ccccc2[nH]c1=O)c1c[nH]c2ccccc12	28.9 µM	> 100 µM	50 µM	31.3 µM	58 µM	33 µM	> 100 µM	47.6 µM	> 100 µM	> 100 µM	–	–	–	–	–	–	–	–	–	–
CCOc1nc2c(N3CCCC3)nc(N3CCNCC3)nc2nc1NCc1ccccc1	1.93 µM	2.98 µM	2.2 µM	3.63 µM	3.08 µM	2.39 µM	3.49 µM	3.13 µM	6.84 µM	2.99 µM	–	–	–	–	–	–	–	–	–	–
CC1(C)OC[C@@H]([C@@]2(COC(c3ccccc3)(c3ccccc3)c3ccccc3)CC=CC(=O)O2)O1	50.6 µM	> 100 µM	40.9 µM	> 100 µM	> 100 µM	> 100 µM	96.7 µM	> 100 µM	> 100 µM	81.2 µM	–	–	–	–	–	–	–	–	–	–
COc1ccc(C2C3CCc4ccccc4C3=NN2S(=O)(=O)c2cccc(C(=O)O)c2OC)cc1 (configuration not stated)	5.6 µM	> 100 µM	14.2 µM	> 100 µM	> 100 µM	34.9 µM	81.7 µM	> 100 µM	> 100 µM	> 100 µM	–	–	–	–	–	–	–	–	–	–
Cc1ccc(-c2cc(-c3ccc(Cl)cc3)nc(/N=C3\C(=O)N(CN(C)C)c4ccccc43)n2)cc1	> 100 µM	> 100 µM	69.4 µM	> 100 µM	> 100 µM	> 100 µM	> 100 µM	> 100 µM	97.8 µM	26.2 µM	–	–	–	–	–	–	–	–	–	–
Oc1ccccc1C=Nc1ccc(-c2nc3ccccc3s2)cc1	40.9 µM	> 100 µM	54.7 µM	56.8 µM	> 100 µM	> 100 µM	> 100 µM	84.8 µM	> 100 µM	91.2 µM	–	–	–	–	–	–	–	–	–	–
CCCCOc1ccc(CC(NC(=O)OC(C)(C)C)C(=O)NC(C)C(=O)NC(Cc2ccccc2)C(=O)NCC(N)=O)cc1 (configuration not stated) (Boc-Y(nBu)AFG-NH2; configuration not given here)	> 100 µM	> 100 µM	> 100 µM	> 100 µM	> 100 µM	> 100 µM	> 100 µM	> 100 µM	> 100 µM	> 100 µM	–	–	–	–	–	–	–	–	–	–

Structure (SMILES)	TGI (COLO 205 colon)	TGI (M14 melanoma)	TGI (NCI-H522 lung)	TGI (PC-3 prostate)	TGI (KM12 colon)	TGI (U251 CNS)	TGI (CCRF-CEM leukemia)	TGI (T-47D breast)	TGI (DU-145 prostate)	TGI (HL-60(TB) leukemia)	GI50 (M14 melanoma)	GI50 (NCI-H522 lung)	GI50 (HL-60(TB) leukemia)	GI50 (CCRF-CEM leukemia)	GI50 (DU-145 prostate)	GI50 (COLO 205 colon)	GI50 (PC-3 prostate)	GI50 (KM12 colon)	GI50 (U251 CNS)	GI50 (T-47D breast)
N#C/C(=C(/O)CCl)c1nc2ccccc2o1	3.45 µM	21 µM	–	22.8 µM	53.3 µM	23.8 µM	90.7 µM	44.6 µM	> 100 µM	7.04 µM	–	–	–	–	–	–	–	–	–	–
O=P(NCCCO)(OCc1ccccc1)N(CCCl)CCCl (configuration not stated)	> 100 µM	–	> 100 µM	–	> 100 µM	> 100 µM	> 100 µM	–	–	> 100 µM	–	–	–	–	–	–	–	–	–	–
O=[N+]([O-])c1ccc(N=Nc2c(O)[nH]c3ccccc23)c([N+](=O)[O-])c1	71.2 µM	> 100 µM	> 100 µM	> 100 µM	> 100 µM	47.8 µM	> 100 µM	52.8 µM	30.1 µM	> 100 µM	–	–	–	–	–	–	–	–	–	–
Nc1nc(SCC(=O)c2ccc(Br)cc2)c2[nH]cnc2n1	46.8 µM	> 100 µM	86.5 µM	> 100 µM	> 100 µM	> 100 µM	47.8 µM	98.7 µM	> 100 µM	63.1 µM	–	–	–	–	–	–	–	–	–	–
C=C1C(O)C2(O)OCC34C(CC5C(C)=CC(=O)C(O)C5(C)C23)OC(=O)C(OC(=O)C/C=C/CCCCCCCC)C14 (configuration not stated)	0.0464 µM	–	0.0202 µM	–	0.0751 µM	0.0227 µM	0.166 µM	–	–	0.2 µM	–	–	–	–	–	–	–	–	–	–
CC(C)CC(N)C(=O)NC(C(=O)NC(CCCNC(=N)N)C(=O)NC(CS)C(=O)NC1CSCC(C(=O)NC(Cc2ccccc2)C(=O)NC(C(=O)NC(CCCNC(=N)N)C(=O)O)C(C)C)NC(=O)C2CCCN2C(=O)C(CCCCN)NC(=O)C2CCCN2C(=O)C2CCCN2C(=O)C(Cc2ccc(O)cc2)NC(=O)C(CO)NC(=O)C(CCCCN)NC(=O)C(C(C)O)NC(=O)C(Cc2c[nH]c3ccccc23)NC1=O)C(C)C (configuration not stated)	> 25 µM	> 25 µM	> 25 µM	> 25 µM	> 25 µM	> 25 µM	> 25 µM	> 25 µM	> 25 µM	> 25 µM	–	–	–	–	–	–	–	–	–	–
COc1ccc(N2C(=O)C(=O)C3(CCCCC3)C2=O)c2ccccc12	> 10 µM	> 10 µM	> 10 µM	> 10 µM	> 10 µM	> 10 µM	> 10 µM	> 10 µM	> 10 µM	> 10 µM	–	–	–	–	–	–	–	–	–	–
O=C(Nc1ccccc1)Oc1ccc(C(=S)Nc2ccc(Br)cc2)cc1	36.6 µM	–	29.5 µM	89.8 µM	32.4 µM	56.1 µM	28.5 µM	75.1 µM	81.8 µM	30.3 µM	–	–	–	–	–	–	–	–	–	–
CC(=O)c1ccc(Nc2c3ccccc3nc3occc23)cc1	0.136 µM	2.92 µM	< 0.01 µM	> 100 µM	1.59 µM	> 4.64 µM	4.46 µM	32.8 µM	5.39 µM	< 0.01 µM	–	–	–	–	–	–	–	–	–	–
O=C1c2c(Br)sc(Br)c2[C@@H](O)[C@H]1O	28.5 µM	26.5 µM	3.54 µM	33.1 µM	45.1 µM	20.8 µM	6.32 µM	43.7 µM	30.7 µM	28.6 µM	–	–	–	–	–	–	–	–	–	–
Cc1ccc(-c2cn3c(nc4ccccc43)c(/C=C/c3ccco3)n2)cc1	> 100 µM	> 100 µM	–	–	> 100 µM	> 100 µM	–	> 100 µM	> 100 µM	> 100 µM	–	–	–	–	–	–	–	–	–	–
COc1ccc(CCn2cncn2)cc1	> 100 µM	> 100 µM	> 100 µM	–	> 100 µM	> 100 µM	> 100 µM	–	–	> 100 µM	–	–	–	–	–	–	–	–	–	–
O=c1c2cc(O)ccc2n2nnc3ccc(NCCNCCO)c1c32	50.9 µM and 21.7 µM	31.2 µM and 17.9 µM	2.33 µM and 4.8 µM	–	> 85.3 µM and 25.2 µM	7.43 µM and 13.3 µM	> 36.6 µM and 10.6 µM	–	–	> 42.2 µM and 13.1 µM	11.9 µM and 5.64 µM	0.582 µM and 1.47 µM	6.46 µM and 1.88 µM	1.73 µM and 0.501 µM	–	–	–	–	–	–
COc1ccccc1-c1c(C#N)c(N)[nH]c(=S)c1C#N	> 100 µM	> 100 µM	> 100 µM	> 100 µM	> 100 µM	> 100 µM	–	–	> 100 µM	> 100 µM	–	–	–	–	–	–	–	–	–	–
CN(C)c1ccc(-c2ccc(-c3ccc(C(=N)N)cn3)o2)cc1	2.28 µM	3.47 µM	3.44 µM	2.93 µM	3.01 µM	2.91 µM	4.36 µM	3.67 µM	3.18 µM	3.73 µM	1.85 µM	1.84 µM	1.76 µM	1.8 µM	1.72 µM	1.04 µM	1.5 µM	1.43 µM	1.53 µM	1.73 µM
